{"source": "patent US20260130918A1", "about": "“TRANSCRIPTION FACTOR PFAP2-O5 INHIBITOR FOR PLASMODIUM FALCIPARUM, PHARMACEUTICAL COMPOSITION, AND DRUG FOR TREATING MALARIA RESISTANT TO ARTEMISININ AND ANALOG THEREOF” (priority 2023, published 2026)", "key": {"[1]": {"assay": "Liver microsomal metabolism, human", "assay_type": "in vitro ADME", "design": "half-life / CLint scaled: dose or concentration left out as unconfirmed", "method": "(§1) In the microsomal metabolism assay, the inhibitor was incubated with liver microsomes from different species; the reaction was terminated at different time points; the remaining amount of the inhibitor in the samples at each time point was determined using LC-MS/MS. The percentage of parent drug remaining was calculated, and the hepatic intrinsic clearance CLinit(liver) was finally obtained. Testosterone was used as a control in this study to verify the reliability of the experimental system. The detailed procedures were as follows:\n(§2) The incubation system consisted of 0.1 M Tris-HCl buffer (pH 7.4), 1 mM MgCl2, 1 mM NADPH (Nicotinamide Adenine Dinucleotide Phosphate), and 0.5 mg/mL microsomes, and the final reaction volume was 200 μL. […] inhibitor and testosterone were pre-incubated with liver microsomes from different species in a 37° C. water bath for 5 minutes. 100 μL of NADPH was added to initiate the reaction. 400 μL of stop solution was added to terminate the reaction at time points of 0 minutes, 5 minutes, 15 minutes, 30 minutes, 45 minutes, and 60 minutes. 40 μL of internal standard was added, and the mixture was vortexed for 5 minutes and centrifuged at […] and 4° C. for 5 minutes. 100 μL of the supernatant was taken and diluted with 100 μL of water for injection and analysis. The retention time of the compound and the internal standard, chromatogram acquisition, and chromatogram integration were processed by Analyst 1.6.3 software. The compound was subjected to linear regression with a weighting coefficient of 1/X^2 to calculate the concentration at each time point. The natural logarithm of the percentage remaining at each time point was linearly regressed against the incubation time to calculate the in vitro elimination rate constant k. The half-life (T1/2) and hepatic intrinsic clearance CLint(liver) of the test article were calculated according to the following formula.\n(§3) hepatic microsomal clearance CLint(mic)=0.693/half-life/mg microsomal protein per mL; hepatic intrinsic clearance CLint(liver)=hepatic microsomal clearance×mg microsomal protein/gram of liver×liver weight-to-body weight ratio. The liver weight-to-body weight ratios of mice, rats, and humans were […], respectively; the average value of mg microsomal protein/gram of liver in different species was 45."}, "[2]": {"system": "HepG2 cells", "assay": "3-day CCK-8 cytotoxicity assay, HepG2", "assay_type": "cell-based, human", "settings": "HepG2, 72 hours", "method": "(§4) Mammalian 293T and HepG2 cells were cultured and passaged, trypsinized, and resuspended in DMEM. The cells were counted using a hemocytometer and diluted to 10^5 cells/mL. The cell suspension was evenly added to a 96-well plate, with 100 μL per well. After the cells were subjected to attachment culture in a 37° C. incubator (5% CO2) for 24 hours, the inhibitors of the corresponding concentrations were added. Gradient dilution (11 concentration gradients) was performed at a 1/2 ratio according to the doubling gradient dilution. Complete culture medium was used as a negative control, and DMEM was used as a background control. After the culture in a 37° C. incubator (5% CO2) for 72 hours, 10 µL of CCK8 reagent was added to each well. The plate was incubated in a 37° C. incubator (5% CO2) for 1 hour. The absorbance at a 450 nm wavelength was read by a microplate reader, and a survival rate was calculated based on the absorbance.\n(§5) [formula] • where Abtreated, Abbackground, and Abcontrol represent the absorbance values of the small molecule drug group, the DMEM control group, and the untreated control group, respectively. The inhibition rate of the drug was calculated based on the survival rate at different concentrations, and the growth inhibition curve was summarized as inhibition rate-drug concentration. The IC50 was calculated using SPSS 18.0 software."}, "[3]": {"assay": "Liver microsomal metabolism, rat", "assay_type": "in vitro ADME", "design": "half-life / CLint scaled: dose or concentration left out as unconfirmed", "method": "as §1, §2, §3"}, "[4]": {"assay": "Liver microsomal metabolism, mouse", "assay_type": "in vitro ADME", "design": "half-life / CLint scaled: dose or concentration left out as unconfirmed", "method": "as §1, §2, §3"}, "[5]": {"system": "PfAP2-O5 target genes (invasion genes)", "assay": "RNA-seq analysis of invasion gene expression after inhibitor treatment", "assay_type": "cell-based, Plasmodium falciparum", "settings": "wild-type strain treated with 1 M triazoloquinoline derivative for one life cycle", "method": "Wild-type and pfap2-o5 conditional knockdown Plasmodium falciparum strains were treated with the triazoloquinoline derivative represented by formula (I), respectively. After strict synchronization of the Plasmodium falciparum strains, […] triazoloquinoline derivative was added one life cycle in advance. After one life cycle, the ring (10-15 hours), trophozoite (28-32 hours), and schizont (40-44 hours) stage cultures of the wild-type and pfap2-o5 conditional knockdown Plasmodium falciparum strains treated with the triazoloquinoline derivative were collected. Total RNA was purified using the Direct-zol RNA kit, strand-specific RNA sequencing libraries were then prepared using KAPA mRNA beads, and the RNA was fragmented. The libraries were sequenced on the Illumina HiSeq X Ten system, and the differential gene expression between the two Plasmodium falciparum strains after inhibitor treatment was analyzed."}, "[6]": {"system": "293T cells", "assay": "3-day CCK-8 cytotoxicity assay, 293T", "assay_type": "cell-based, human", "settings": "72 hours", "method": "as §4, §5"}, "[7]": {"system": "artemisinin-resistant Plasmodium falciparum strains", "assay": "Ring-stage survival assay against resistant Plasmodium falciparum strains", "assay_type": "cell-based", "settings": "in combination with DHA, 6 hours exposure, then 66 hours culture", "method": "This experiment aimed to evaluate the killing effect of the triazoloquinoline derivative as a combination drug against drug-resistant Plasmodium falciparum strains using the gold-standard drug resistance assay. The detailed implementation procedures were as follows: • 1. Culture of Plasmodium falciparum when the parasitemia was greater than 4% and most parasites were at the ring (R) stage, the culture was synchronized with Sorbitol for 10 minutes and vortexed for 5 seconds; • 2. Synchronization with sorbitol was repeated 30-48 hours later (depending on the parasite stage); • 3. Smear test under microscope after approximately 30 hours of culture: if the proportion of the mature schizont (S) stage (10-12 merozoites) was greater than 0.5%, the operation proceeded to procedure 4; if the proportion of the mature S stage (10-12 merozoites) was less than 0.5%, procedure 2 was repeated; • 4. […] After the culture was mixed well, approximately 200 μL of the culture was pipetted and centrifuged for smear test under microscope (this could be done approximately 10 minutes in advance); the parasitemia was quickly calculated (must be greater than 0.5%); • 7. […] After 66 hours of the culture, smear test under microscope was performed to calculate the parasitemia, and the survival rate was calculated."}, "[8]": {"system": "Plasmodium falciparum", "assay": "3-day SYBR Green I in vitro growth inhibition of Plasmodium falciparum", "assay_type": "cell-based", "settings": "wild-type Plasmodium falciparum, 72 hours, read-out: IC50 of growth inhibition on in vitro culture of Plasmodium falciparum", "method": "100 μL of complete culture medium was added to a 96-well plate. 200 μL of a compound stock solution with a concentration of 200 μM was added to the first well. Gradient dilution (11 concentration gradients) was performed at a 1/2 ratio according to the doubling gradient dilution. Dihydroartemisinin (DHA) was used as a positive control, complete culture medium was used as a negative control, and red blood cells without Plasmodium falciparum or compounds were used as a background control.\n100 μL of wild-type Plasmodium falciparum culture (1% parasitemia, 4% hematocrit) was accurately added to each well, so that finally, the parasitemia in each well was 0.5%, and the hematocrit was 2%. The final concentration gradients of the compound were 100 μM, 50 μM, 25 μM, 12.5 μM, 6.25 μM, 3.125 μM, 1.5625 μM, 0.78125 μM, 0.390625 μM, 0.195313 μM, and 0.097656 μM. […] After the incubation was completed, a fluorescence intensity was recorded on a microplate reader with an excitation wavelength of 485 nm and an emission wavelength of 535 nm. The inhibition rate of the small molecule inhibitor on the growth of Plasmodium falciparum was calculated based on the fluorescence intensity.\n[formula] • where Fltreated, Flbackground, and Flcontrol represent the fluorescence intensity values of the candidate small molecule drug group, the red blood cell control group, and the untreated control group, respectively. […]"}}, "note": "Entries after “also recorded” stand apart in the source; their conditions may differ.", "data": [{"smiles": "Cc1cccc(-c2nnc3c4ccccc4nc(N4CCN(C(=O)Cc5ccccc5)CC4)n23)c1", "note": "[triazoloquinoline derivative]", "values": [{"measurement": "clearance classification", "setting": "[1]; human liver microsomes", "value": "moderate-clearance compound"}, {"measurement": "k", "setting": "[1]; human liver microsomes, 0.5 mg/mL, NADPH", "value": 0.0053, "unit": "min⁻¹"}, {"measurement": "CLint scaled", "setting": "[1]; liver microsomes, pH 7.4, human, hepatic intrinsic clearance scaled from microsomes", "value": 8.54, "unit": "mL/min/kg"}, {"measurement": "half-life", "setting": "[1]; pH 7.4, human liver microsomes", "value": 131, "unit": "min"}, {"measurement": "cytotoxicity to mammalian cells (HepG2)", "setting": "[2]", "value": "low cytotoxicity; also recorded: almost no toxicity"}, {"measurement": "CLint scaled", "setting": "[3]; liver microsomes, pH 7.4, rat, hepatic intrinsic clearance scaled from microsomes", "value": 59.4, "unit": "mL/min/kg"}, {"measurement": "half-life", "setting": "[3]; pH 7.4, rat liver microsomes", "value": 42, "unit": "min"}, {"measurement": "clearance classification", "setting": "[3]; rat liver microsomes", "value": "moderate-clearance compound"}, {"measurement": "k", "setting": "[3]; rat liver microsomes, 0.5 mg/mL, NADPH", "value": 0.0165, "unit": "min⁻¹"}, {"measurement": "CLint scaled", "setting": "[4]; liver microsomes, pH 7.4, mouse, hepatic intrinsic clearance scaled from microsomes", "value": 342, "unit": "mL/min/kg"}, {"measurement": "clearance classification", "setting": "[4]; mouse liver microsomes", "value": "high-clearance compound"}, {"measurement": "k", "setting": "[4]; mouse liver microsomes, 0.5 mg/mL, NADPH", "value": 0.0432, "unit": "min⁻¹"}, {"measurement": "half-life", "setting": "[4]; pH 7.4, mouse liver microsomes", "value": 16, "unit": "min"}, {"measurement": "decrease of expression levels of merozoite surface structural protein family genes (mRNA level)", "setting": "[5]", "value": "more than 1.5 fold"}, {"measurement": "cytotoxicity to mammalian cells (293T)", "setting": "[6]", "value": "low cytotoxicity; also recorded: almost no toxicity"}, {"measurement": "killing effect against artemisinin-resistant strains (ring-stage survival)", "setting": "[7]", "value": "more effectively kill"}, {"measurement": "IC50", "setting": "[8]", "value": 2630, "unit": "nM"}]}]}
